# Experimental data published in patent publication US12661354B2, “DRG-MDM2-4 for use as a novel mouse double minute 2 (MDM2) inhibitor” (BAHCESEHIR UNIVERSITESI, priority 2020, dated 2026).
# Like-named read-outs stand apart in the source and are kept apart here.
# Tests used:
# MDA-MB231 cell lines = assay: MTT cell viability assay (IC50); assay type: cell-based; settings: Homo sapiens, MDA-MB-231; MDA-MB231, single dose of treatment, 10^−9 to 10^−4 M, 570 nm absorbance
# Method: (§1) HCT 116 colon cancer and MDA-MB231 breast cancer cell lines are used in cell culture experiments.
# (§2) Cells were treated with high-glucose DMEM medium (Biosera) supplemented with 10% FBS (Gibco) and 1× penicillin/streptomycin (Multicell). The assay was designed to contain 10,000 cells for each well of 24-well cell culture plates before being treated with inhibitors.
# (§3) Compound of formula I was dissolved with DMSO as 20 mM stock. 24 hours later, the solution was diluted in DMEM with 10% FBS and final concentration of vehicle DMSO was 0.5% at maximum. Therefore, the vehicle group included 0.5% DMSO concentration in experiments. Intensive cultivation of cells causes a decrease in proliferation capacity.
# The MTT cell viability assay was used to detect values of half-maximal inhibitory concentration (IC50). Different concentrations of compound of formula I ranging between 10^−9 to 10^−4 M were tested on MDA-MB231 cell lines with single dose of treatment. 570 nm absorbance values were recorded and IC50 values were calculated by dose response-inhibition curves and nonlinear regression analysis on Graphpad Prism 8 software. IC50 value of compound of formula I was determined to be 24 μm (FIG. 1).
# [1] = tested on: HCT 116 colon cancer and MDA-MB231 breast cancer cell lines; assay: MTT cell proliferation assay; assay type: cell-based; settings: for cytotoxicity at 100 µM: read-out: cell viability decreased
# Method: as §1, §2, §3
# For proliferation inhibition analysis, cells were seeded in 24 well plates at 1×10^4 cells/well cells overnight without drug treatment. During the cell proliferation experiments, we performed five days of treatment in each cell line and repeated the experiments three times to check each experiment. No significant difference in cell viability was observed after the third day. Therefore, cells with different drug concentrations were treated for two days. After 48 hours, MTT was applied to the cells and incubated at 37° C. for 4 hours, formazan was solubilized with DMSO (Sigma-Aldrich, St. Louis, USA) and absorbance was measured at 570 nm.
# Molecule concentration was 100 μM, the lower concentrations were not shown. Vehicle represents the groups treated with only %0,5 DMSO and Untreated represents no molecule treated group. Molecule responses were evaluated by cell viability which is obtained by spectrophotometric analysis of cells upon MTT treatment at 12 h, 24 h, 48 h and 72 h. […] Statistical significance in graphs was determined by comparing each treatment group with DMSO control using ANOVA testing and significance is considered as p<0.001 (FIG. 2).
# HCT-116 cells = assay: Microscopic evaluation of HCT-116 cells; assay type: cell-based
# Text: Cells were photographed and observed under microscope for three days.
# As a result, cell viability decreased by 40% at the end of the first day and reached 60% at the end of the third day. Any cell proliferation change and apoptotic cell morphology were not observed in the untreated and vehicle groups. Moreover, differences in cell morphology were also observed.
# MDM2 protein = MDM2 protein (Homo sapiens, UniProt Q00987); settings: MDM2 protein versus natural p53 peptide; cited from earlier work
# MDM2 protein, sequence (Q00987 whole entry, species assumed): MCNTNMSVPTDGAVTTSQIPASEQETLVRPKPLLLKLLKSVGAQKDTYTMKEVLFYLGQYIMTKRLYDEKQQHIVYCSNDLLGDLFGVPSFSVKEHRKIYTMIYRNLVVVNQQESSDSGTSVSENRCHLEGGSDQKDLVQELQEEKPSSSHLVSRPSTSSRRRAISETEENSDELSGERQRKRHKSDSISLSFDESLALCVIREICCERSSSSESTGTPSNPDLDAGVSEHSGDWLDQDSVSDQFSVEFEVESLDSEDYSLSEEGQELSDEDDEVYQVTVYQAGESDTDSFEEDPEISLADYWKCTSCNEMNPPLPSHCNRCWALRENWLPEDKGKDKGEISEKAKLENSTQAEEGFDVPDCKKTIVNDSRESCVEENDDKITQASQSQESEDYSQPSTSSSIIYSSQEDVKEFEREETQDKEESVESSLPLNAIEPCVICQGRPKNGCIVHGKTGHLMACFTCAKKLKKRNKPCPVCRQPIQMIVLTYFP
Compound,IC50 (MDA-MB231 cell lines) [µM],"cell viability compared to vehicle and untreated groups ([1]; 100 μM, 12 h, 24 h, 48 h and 72 h, ANOVA, p<0.001)",cytotoxicity at 100 µM ([1]; end of the first day) [%],cytotoxicity at 100 µM ([1]; end of the third day) [%],"morphology of apoptotic cells, onset (HCT-116 cells; 100 μM concentration)","apoptotic activity, onset (HCT-116 cells; HCT-116, microscopy)","proliferation and cell structures under microscope (HCT-116 cells; HCT-116, observed for three days, versus vehicle and untreated)",binding affinity relative to natural p53 peptide (MDM2 protein) [fold]
Cc1cc(=O)c(C(=O)NCCc2c[nH]c3ccccc23)nn1-c1cccc(C(F)(F)F)c1 [compound of formula I],24,statistically significant difference,40,60,cells having the morphology of apoptotic cells were observed starting from the 3rd hour,clear apoptotic activity from the twelfth hour,reduced proliferation and showed apoptotic cell structures,
MI-319,,,,,,,,500
